Results as given in paper PMC11189555, “Aryl amino acetamides prevent Plasmodium falciparum ring development via targeting the lipid-transfer protein PfSTART1” (Nature Communications, 2024).
Several values for one entry are separate records, joined by “and”; a condition that tells them apart may be missing. Identical values can stand only once. Like-named read-outs stand apart in the source and are kept apart here.

Columns and labels:
CR-N309K parasites = test: Growth inhibition assay (72 h, LDH activity); format: cell-based, Plasmodium falciparum; details: for inhibition at 5 µM: read-out: NORMALISED (growth inhibition, LDH absorbance)
Method: (§1) Parasite growth assays with inhibitory compounds were performed as per[11] and are fully described in the Supplementary Information.
(§2) Molecular biology and transfection of P. falciparum: CRISPR method.
(§3) The full 5’ homology region of pfstart1 (either WT, N309K or N330K) was amplified from pPfSTART1-HA-2A-Neo-glmS with the same 5’ BglII primer and a new 3’ primer that replaced with PstI with SpeI and introduced a stop codon. The PCR product was then digested with BglII and SpeI and inserted into similarly digested p1.2 parasite vector2. The p1.2 vector had previously been inserted with a homology region amplified from the 3’ end of the pfstart1 gene (3’HB) to form a second homology block for double recombination. The primers used to amplify 3’HB are listed primers listed in […]
(§4) 60 μg of p1.2-PfSTART1(WT/N309K/N330K) plasmid was linearised with KasI, precipitated in 3 M sodium acetate and ethanol (70% final concentration) overnight at -20°C. The DNA pellet was washed in cold 70% ethanol and resuspended in cytomix 3.
(§5) 50 μ M of crRNA ( Table S 2) and 50 μM of tracRNA (Integrated DNA Technologies) were allowed to form a duplex (5 min at 95°C), and Cas9 enzyme (Integrated DNA Technologies) was added, and incubated for 20 min at room temperature 4. This crRNA -tracRNA -Cas9 mix was added to each DNA preparation and transfected to 3D7 ring parasites using the Bio -Rad Gene Pulser at 310 V and 950 μF.
(§6) Parasites containing the transfected DNA were selected using 2.5 nM WR99210 (Jacobus). Parasites lines were cloned using limiting dilution. Correct integration was tested by PCR (using primer START_5’UTR.F and START_Int.R1 , Table S 2), and sequencing was done using the primers START_3F and START_Int.R2 (Table S 2).
(§7) Growth inhibition assays. Synchronised ring-stage parasites (0.3-0.6% parasitemia, 2% haematocrit) were grown for 72 h in a serial-dilution of the compound under […]
(§8) and compound 4. Note that M-833 was first purchased from MolPort (MolPort -002-267-916) then made in-house at WEHI: the differences observed in EC50s across experiments are attributed to the different batches of M -833. For some experiments, 0, 0.25 or 2.5 mM of glucosamine (GlcN) was also added. Experiments were set up in technical duplicates or triplicates. Following a freeze -thaw cycle, lactate dehydrogenase (LDH) activity was assessed as an indicator of parasite growt h 5. 30 μL of parasite culture was incubated for 30 min in the dark with 75 μL Malstat mixture (0.1 M Tris pH 9.0, 20 g/L lactic acid, pH 7.5, 0.2% Triton-X100, 0.5 g/L acetylpyridine adenine dinucleotide (APAD, Sigma), 200 μg/mL nitroblue tetrazolium (NBT; Sigma), 1 μg/mL phenozine ethosulfate (PES; Sigma)). Absorbance was then measured at 650 nm, transformed using the formula below, plotted against the logarithm of the concentrations, and a non-linear regression (log(inhibitor) vs. response, variable slope) was calculated using GraphPad Prism to assess the half-inhibitory […]
(§9) Growth inhibition % = (1 − average(sample)− average(uRBC)) ∗ 100 […]
(§10) The DMSO samples were also used to assess growth of parasite in the presence of 0.25 and 2.5 mM GlcN (normalised by DMSO in 0 mM GlcN).
(§11) Egress, invasion & recovery assay. To measure egress, invasion and follow up recovery in the presence of different compounds, we adapted the method developed in6, using Hyp1-Nluc parasites7. These parasites episomally express the exported PEXEL protein Hyp1 (PF3D7_0113300) tagged with a NanoLuc luciferase (NLuc) and were selected with 2.5 nM WR99210 (Jacobus). Highly synchronised schizonts were obtained using ML10 (LifeArc) and sorbitol synchronisation, and Percoll-purified (the culture was gently layered over 67% Percoll (Cytiva) in RPMI, and centrifuged for 15 min at 1500 g and the schizont layer was collected and washed). In a 96-well plate, […]

CR-N330K parasites = test: Growth inhibition assay (72 h, LDH activity); format: cell-based, Plasmodium falciparum
Method: as §1, §2, §3, §4, §5, §6, §7, §8, §9, §10, §11

[1] = 0.25 mM GlcN, dilution point 1 of 10, starting concentration 5 uM
[2] = 0.25 mM GlcN, dilution point 2 of 10 from starting concentration 5 uM
[3] = 0.25 mM GlcN, dilution point 3 of 10 from starting concentration 5 uM
[4] = 0.25 mM GlcN, dilution point 6 of 10 from starting concentration 5 uM
[5] = 2.5 mM GlcN, dilution point 1 of 10, starting concentration 5 uM
[6] = 2.5 mM GlcN, dilution point 2 of 10 from starting concentration 5 uM
[7] = 2.5 mM GlcN, dilution point 3 of 10 from starting concentration 5 uM
[8] = 2.5 mM GlcN, dilution point 4 of 10 from starting concentration 5 uM
[9] = 2.5 mM GlcN, dilution point 5 of 10 from starting concentration 5 uM
[10] = 2.5 mM GlcN, dilution point 6 of 10 from starting concentration 5 uM

CC(C)(Nc1ccc(Cl)c(S(=O)(=O)N2CCOCC2)c1)C(=O)Nc1ccc(F)c(Cl)c1 [W-991]
NORMALISED (growth inhibition, LDH absorbance vs DMSO and uRBC) (CR-N309K parasites; 0 mM GlcN, W991 at 185.185 nM): 14.1711 and 15.2813 | NORMALISED (growth inhibition, LDH absorbance vs DMSO and uRBC) (CR-N309K parasites; 0 mM GlcN, W991 at 555.556 nM): 55.508 and 36.7800 | NORMALISED (growth inhibition, LDH absorbance vs DMSO and uRBC) (CR-N309K parasites; 0 mM GlcN, W991 at 1666.67 nM): 87.9679 and 76.9970 | NORMALISED (growth inhibition, LDH absorbance vs DMSO and uRBC) (CR-N309K parasites; 0 mM GlcN, W991 at 5000 nM): 96.4706 and 92.1927 | NORMALISED (growth inhibition, LDH absorbance) (CR-N309K parasites; [1]): 94.7776 | NORMALISED (growth inhibition, LDH absorbance) (CR-N309K parasites; [2]): 100.739 and 90.0516 | NORMALISED (growth inhibition, LDH absorbance) (CR-N309K parasites; [3]): 80.0443 and 56.9500 | NORMALISED (growth inhibition, LDH absorbance) (CR-N309K parasites; 0.25 mM GlcN, dilution point 5 of 10 from starting concentration 5 uM): 17.9601 and 13.8403 | NORMALISED (growth inhibition, LDH absorbance) (CR-N309K parasites; [4]): 8.426 and 8.7470 | NORMALISED (growth inhibition, LDH absorbance) (CR-N309K parasites; [5]): 83.5476 | NORMALISED (growth inhibition, LDH absorbance) (CR-N309K parasites; [6]): 82.9906 | NORMALISED (growth inhibition, LDH absorbance) (CR-N309K parasites; [7]): 95.6522 and 78.1705 | NORMALISED (growth inhibition, LDH absorbance) (CR-N309K parasites; [8]): 71.5415 and 48.7789 | NORMALISED (growth inhibition, LDH absorbance) (CR-N309K parasites; [9]): 41.502 and 22.2365 | NORMALISED (growth inhibition, LDH absorbance) (CR-N309K parasites; [10]): 17.3913 and 10.0471 | NORMALISED (growth inhibition, LDH absorbance) (CR-N309K parasites; 2.5 mM GlcN, dilution point 8 of 10 from starting concentration 5 uM): 5.138 and 4.2631 | NORMALISED (growth inhibition, LDH absorbance) (CR-N309K parasites; 2.5 mM GlcN, dilution point 9 of 10 from starting concentration 5 uM): 11.3967 and 7.51 | fold less susceptible than the 3D7 and CR-WT controls (CR-N309K parasites; Fig 4C): around 600 fold | fold sensitised on PfSTART1 knock-down with GlcN (CR-N309K parasites; Fig 4C): 5 fold | EC50 (CR-N309K parasites; Fig 4C, 0 mM GlcN, n = 3, read-out: EC50 W-991 (95% confidence interval)): < 700 nM | inhibition at 5 µM (CR-N309K parasites; Plasmodium falciparum, 0.25 mM GlcN, dilution point 1 of 10, starting concentration 5 uM): 101% | inhibition at 5 µM (CR-N309K parasites; Plasmodium falciparum, 2.5 mM GlcN, dilution point 1 of 10, starting concentration 5 uM): 94.5% | EC50 (CR-N309K parasites; Plasmodium falciparum, read-out: EC50 W-991 (95% confidence interval), Fig 4C, 0 mM GlcN, n = 3): 687 nM | EC50 (CR-N309K parasites; Plasmodium falciparum, read-out: EC50 W-991 (95% confidence interval), Fig 4C, 0.25 mM GlcN, n = 3): 362 nM | EC50 (CR-N309K parasites; Plasmodium falciparum, read-out: EC50 W-991 (95% confidence interval), Fig 4C, 2.5 mM GlcN, n = 3): 137 nM | EC50 (CR-N309K parasites; read-out: EC50 W-991 (95% confidence interval), Fig 4C, 0 mM GlcN, n = 3): 687 nM | NORMALISED (growth inhibition, LDH absorbance) (CR-N330K parasites; 0 mM GlcN, dilution point 1 of 10, starting concentration 5 uM): 89.5809 and 91.9275 | NORMALISED (growth inhibition, LDH absorbance) (CR-N330K parasites; 0 mM GlcN, dilution point 2 of 10 from starting concentration 5 uM): 82.5498 and 75.3344 | NORMALISED (growth inhibition, LDH absorbance) (CR-N330K parasites; [1]): 90.7025 | NORMALISED (growth inhibition, LDH absorbance) (CR-N330K parasites; [2]): 83.8227 | NORMALISED (growth inhibition, LDH absorbance) (CR-N330K parasites; [3]): 67.3993 and 45.0538 | NORMALISED (growth inhibition, LDH absorbance) (CR-N330K parasites; [4]): 5.889 and 5.4992 | NORMALISED (growth inhibition, LDH absorbance) (CR-N330K parasites; [5]): 66.3651 and 90.1101 | NORMALISED (growth inhibition, LDH absorbance) (CR-N330K parasites; [6]): 62.0066 and 84.8366 | NORMALISED (growth inhibition, LDH absorbance) (CR-N330K parasites; [7]): 63.3224 and 83.4457 | NORMALISED (growth inhibition, LDH absorbance) (CR-N330K parasites; [8]): 52.3849 and 74.2725 | NORMALISED (growth inhibition, LDH absorbance) (CR-N330K parasites; [9]): 40.7072 and 51.6938 | NORMALISED (growth inhibition, LDH absorbance) (CR-N330K parasites; [10]): 28.9474 and 29.6954
